Measurements taken from PMC4811302, “Human β-defensin 3 contains an oncolytic motif that binds PI(4,5)P2 to mediate tumour cell permeabilisation” (Oncotarget, 2015).
Where no end group is shown, it is not given here.

Experiments:
[1] = ATP-encapsulated liposome leakage assay, PC:PI(4,5)P2; conditions: PC liposomes containing 5% PI(4,5)P2, concentration-dependent, compared with PC only
Protocol: Liposomes were generated as described previously using natural PI(4,5)P2 (porcine brain, in chloroform:methanol:water at 20:9:1 molar ratio) and PC (chicken egg, in chloroform) purchased from Avanti Polar Lipids. PC only or PC:PI(4,5)P2 (95:5 molar ratio) solutions were dried under a stream of nitrogen gas followed by overnight vacuum-drying. The lipid films were rehydrated to a final concentration of 5 mg/mL in 20 mM HEPES (pH 7.2) containing 5 mg/mL adenosine-5-triphosphate disodium salt (ATP; Sigma-Aldrich) at 37°C for 1 h. After three subsequent cycles of freezing (liquid nitrogen) and thawing (25°C), multilamellar liposomes were extruded 15–20 times through a mini-extruder (Avanti Polar Lipids). Free ATP was removed by three centrifugal washes with 20 mM HEPES at 16,500 g prior to the ATP release assay. Liposomes treated with 1% Triton X-100 were included as positive control and assigned as total lysis, whereas HEPES only control served as background reading. The level of ATP release at a particular time point was determined by quotient of the corrected reading (after subtracting background) of the sample at that time point and corrected reading of total lysis, as per the following equation: % Lysist=Samplet−HEPESt/Triton X−HEPES×100

[2] = Protein-lipid overlay assay, Membrane strip; type: binding; conditions: 1 μg/mL protein, immunodetection, densitometry
Protocol: Protein-lipid overlay assays using Membrane strip™ or PIP strip™ (Echelon Biosciences, Salt Lake City, UT) were performed using 1 μg/mL proteins as described previously. Lipid binding was immunodetected using a combination of rabbit anti-HBD-3 IgG (50 μg/mL) and horseradish peroxidase-conjugated donkey-anti-rabbit Ig (10 μg/mL) antibodies. Chemiluminescence signal intensity was quantitated by densitometry analysis using ImageJ (National Institutes of Health, Bethesda, MD; http://imagej.nih.gov/ij/).

tumour lines = assay: Flow cytometry-based PI uptake assay, tumour lines; type: cell-based, human; conditions: 50 μM HBD-3 (highest dose tested), 37°C, 30 min
Protocol: (§1) Cells suspended at 1×10^6 cells/mL in serum-free medium containing 0.1% (w/v) bovine serum albumin (BSA) (Sigma-Aldrich) were treated with HBD-3 at 37°C for 30 min. Nucleic acid stain propidium iodide (PI) was then added to a final concentration of 1 μg/mL and cells subjected to flow cytometry analysis using BD FACSCanto II Flow Cytometer and BD FACSDiva Software v6.1.1 (BD Biosciences, San Jose, CA). For each flow cytometry reading, 10,000 cells, gated appropriately based on forward scattering and side scattering, were recorded. The resultant data were processed using FlowJo software (Tree Star, San Carlos, CA) to determine PI-positivity, which reflects the level of membrane permeabilisation. For lipid inhibition assays, 15 μM HBD-3 was pre-incubated with 50 μM synthetic lipids, including L-α-phosphatidic acid (PA), L-α-phosphatidylcholine (PC), L-α-phosphatidylethanolamine (PE), L-α-phosphatidylserine (PS), L-α-phosphatidylinositol-4-phosphate (PI(4)P), L-α-phosphatidylinositol-3,5-bisphosphate (PI(3,5)P2), L-α-phosphatidylinositol-4,5-bisphosphate (PI(4,5)P2) and L-α-phosphatidylinositol-3,4,5-trisphosphate (PI(3,4,5)P)3. All lipids were sourced from Avanti Polar Lipids, Alabaster, AL. […]

U937 cells [3] = assay: Flow cytometry-based PI uptake assay, U937; type: cell-based, human; conditions: 25 μM HBD-3, 37°C, 30 min, serum-free medium with 0.1% BSA
Protocol: as §1

[4] = test system: primary cell type (HUVEC, AHDF, CASMC); assay: Flow cytometry-based PI uptake assay, primary cell types; set-up: species or system human; conditions: 50 μM HBD-3 (highest dose tested), each primary cell type, 37°C, 30 min
Protocol: as §1

HUVEC cells = assay: Flow cytometry-based PI uptake assay, HUVEC; type: cell-based, human; conditions: 25 μM HBD-3, 37°C, 30 min, serum-free medium with 0.1% BSA
Protocol: as §1

U937 and HeLa cells = assay: Confocal laser scanning microscopy of membrane blebbing; type: cell-based, human; conditions: 15 μM HBD-3, 15 min after addition, PKH67 and PI staining
Protocol: Live imaging was performed on a Zeiss LSM-780 confocal microscope using a 63× oil immersion objective in a 37°C incubator with 5% CO2. Adherent HeLa cells were cultured overnight on coverslips while suspension U937 cells were immobilised onto 0.01% (w/v) poly-L-lysine-coated coverslips. Both cell types were prepared in serum-free RPMI 1640 medium containing 0.1% (w/v) BSA and 2 μg/mL PI. HBD-3 or BODIPY FL EDA-labeled HBD-3 was added directly to the imaging chamber to final concentration of 15 μM, via a capillary tube. In certain experiments, prior to imaging, cells were pre-stained with the membrane dye PKH67 as per manufacturer's instructions (Sigma-Aldrich) or transfected with expression vectors carrying GFP only or GFP-tagged Pleckstrin homology domain of phospholipase C-delta 1 (GFP-PH(PLCδ1)) (kindly provided by Christina Mitchell, Monash University, Australia), using Lipofectamine 3000 reagent (Invitrogen) as per manufacturer's instructions. For CLSM involving transfections, images were taken as 4×4 tiles over 30 min, and the resultant data for GFP and GFP-PH transfected cells were analysed by counting PI-positive cells.

[5] = Transmission electron microscopy of fibril formation with PI(4,5)P2; conditions: in vitro, data not shown
U937 cells [6] = assay: Neomycin inhibition of membrane permeabilisation (PI uptake); type: cell-based, human; conditions: cells pre-treated with 10 mM neomycin, PI uptake by flow cytometry; effect overcome at higher HBD-3 concentrations
Protocol: as §1

human β-defensin 3 (GIINTLQKYYCRVRGGRCAVLSCLPKEEQIGKCSTRGRKCCRRKK; not fully specified; cysteine pairing not given here; UniProt P81534 23-67, looked up) [HBD-3, human β-defensin 3, cationic antimicrobial peptide, recombinantly expressed in P. pastoris]
ATP release from ATP-encapsulated liposomes [1]: much higher level of ATP was released | relative binding intensity to lipids on Membrane strip [2]: greater relative binding intensity toward phospholipids | cells permeabilised (PI-positive) (tumour lines): at least 80% | PI-positive cells (U937 cells [3]): approximately 85% | cells permeabilised (PI-positive) [4]: less than 20% | PI-positive cells (HUVEC cells): 14.5% | size of membrane blebs formed in PI-positive cells (U937 and HeLa cells): > 10 μm | oligomerisation to fibrils on binding PI(4,5)P2 [5]: not observed | susceptibility of neomycin pre-incubated cells to permeabilisation compared to untreated control (U937 cells [6]): significantly less susceptible
